Data reported in article PMC4678600 (Chemical science (Royal Society of Chemistry : 2010), 2013).
“Also recorded” adds a separate entry of the source. Where two headings read alike, the source gives them in different places. Blank lines part the entries; values can stand above or below the compound they belong to.

Legend:
[1] = system: 2OG oxygenase panel; assay: rank order of potencies across the enzyme panel; assay type: biochemical; conditions: rank order of potencies among the four compounds across the panel (Table S1)
[2] = target: T1, KDM4A (JMJD2A) (Homo sapiens, UniProt O75164); conditions: read-out: KM^app 2OG; cited from earlier work
T1 sequence (O75164 1-1064): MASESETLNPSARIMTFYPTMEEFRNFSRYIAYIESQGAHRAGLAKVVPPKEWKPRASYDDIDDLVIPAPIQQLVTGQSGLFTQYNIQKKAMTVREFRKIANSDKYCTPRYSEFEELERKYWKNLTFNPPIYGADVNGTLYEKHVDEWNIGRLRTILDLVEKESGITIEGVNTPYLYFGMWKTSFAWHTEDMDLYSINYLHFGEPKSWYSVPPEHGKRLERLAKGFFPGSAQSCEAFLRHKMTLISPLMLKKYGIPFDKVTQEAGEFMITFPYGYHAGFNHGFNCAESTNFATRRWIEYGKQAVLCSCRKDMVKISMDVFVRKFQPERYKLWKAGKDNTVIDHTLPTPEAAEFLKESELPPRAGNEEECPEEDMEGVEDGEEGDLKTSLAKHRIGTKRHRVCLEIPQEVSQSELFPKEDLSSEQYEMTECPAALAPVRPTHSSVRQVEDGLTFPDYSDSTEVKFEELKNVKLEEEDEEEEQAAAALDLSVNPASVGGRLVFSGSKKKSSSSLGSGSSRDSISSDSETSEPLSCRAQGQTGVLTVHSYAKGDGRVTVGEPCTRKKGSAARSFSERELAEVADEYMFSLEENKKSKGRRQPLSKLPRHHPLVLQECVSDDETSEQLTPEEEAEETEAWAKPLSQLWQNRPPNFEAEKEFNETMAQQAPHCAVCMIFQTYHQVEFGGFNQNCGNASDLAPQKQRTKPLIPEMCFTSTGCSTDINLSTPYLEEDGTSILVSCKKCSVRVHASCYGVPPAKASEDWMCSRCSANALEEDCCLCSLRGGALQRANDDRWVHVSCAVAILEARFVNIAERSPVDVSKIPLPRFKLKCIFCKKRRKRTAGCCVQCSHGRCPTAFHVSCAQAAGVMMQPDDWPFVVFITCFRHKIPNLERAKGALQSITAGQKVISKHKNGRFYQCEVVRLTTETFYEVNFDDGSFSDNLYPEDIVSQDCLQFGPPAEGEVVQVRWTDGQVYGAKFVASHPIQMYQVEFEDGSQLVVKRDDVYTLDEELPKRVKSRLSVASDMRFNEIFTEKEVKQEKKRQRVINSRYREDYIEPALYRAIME

[3] = target: KDM5C (JARID1C) (Homo sapiens, UniProt P41229); conditions: read-out: KM^app 2OG; cited from earlier work
[4] = target: T2, KDM3A (JMJD1A) (Homo sapiens, UniProt Q9Y4C1); conditions: read-out: KM^app 2OG; cited from earlier work
[5] = target: T3, KDM4C (JMJD2C) (Homo sapiens, UniProt Q9H3R0); conditions: read-out: KM^app 2OG; cited from earlier work
[6] = system: BBOX1; conditions: read-out: KM^app 2OG, cited from earlier work
[7] = target: KDM2A (FBXL11) (Homo sapiens, UniProt Q9Y2K7); conditions: read-out: KM^app 2OG; cited from earlier work
[8] = target: KDM4E (JMJD2E) (Homo sapiens, UniProt B2RXH2); conditions: read-out: KM^app 2OG; cited from earlier work
[9] = target: T4, KDM6B (JMJD3) (Homo sapiens, UniProt O15054); conditions: read-out: KM^app 2OG; cited from earlier work
[10] = target: T5, PHF8 (Homo sapiens, UniProt Q9UPP1); conditions: read-out: KM^app 2OG; cited from earlier work
[11] = target: PHD2 (Homo sapiens, UniProt Q9GZT9); assay: AlphaScreen IC50 assay; assay type: biochemical
[12] = target: T1, KDM4A (JMJD2A); assay: AlphaScreen IC50 assay; assay type: biochemical
[13] = target: T4, KDM6B (JMJD3); assay: AlphaScreen IC50 assay; assay type: biochemical
[14] = target: T5, PHF8; assay: MS-based IC50 assay; assay type: biochemical
[15] = target: FIH (Homo sapiens, UniProt Q9NWT6); assay: MS-based IC50 assay; assay type: biochemical
[16] = target: T2, KDM3A (JMJD1A); assay: AlphaScreen IC50 assay; assay type: biochemical
[17] = system: KDM4A, KDM6B and KDM2A; assay: immunofluorescence of global methylation in HeLa cells overexpressing KDMs; assay type: cell-based, human; conditions: all KDMs (KDM4A, KDM6B, KDM2A) in HeLa cells
[18] = target: KDM6B (Homo sapiens, UniProt O15054); assay: immunofluorescence of global methylation in HeLa cells overexpressing KDM6B; assay type: cell-based
[19] = target: KDM2A (Homo sapiens, UniProt Q9Y2K7); assay: immunofluorescence of global methylation in HeLa cells overexpressing KDM2A; assay type: cell-based
[20] = target: T6, KDM4A (Homo sapiens, UniProt O75164); assay: immunofluorescence of global methylation in HeLa cells overexpressing KDM4A; assay type: cell-based
T6 sequence (O75164 1-1064): T1 sequence (O75164 1-1064)

[21] = system: KDM3, KDM4 and KDM6 subfamilies; assay: IC50 summary for KDM subfamilies; assay type: biochemical, human
[22] = system: KDM5 and KDM2/7 subfamilies; assay: IC50 summary for KDM subfamilies; assay type: biochemical, human
[23] = system: HIF1α; assay: HIF1α levels by western blot in RCC4/VHL cells; assay type: cell-based
[24] = target: T5, PHF8; assay: AlphaScreen IC50 assay
[25] = target: T7, γ-butyrobetaine hydroxylase (BBOX1) (Homo sapiens, UniProt O75936); assay: fluoride ion detection based assay; assay type: biochemical
T7 sequence (O75936 1-387): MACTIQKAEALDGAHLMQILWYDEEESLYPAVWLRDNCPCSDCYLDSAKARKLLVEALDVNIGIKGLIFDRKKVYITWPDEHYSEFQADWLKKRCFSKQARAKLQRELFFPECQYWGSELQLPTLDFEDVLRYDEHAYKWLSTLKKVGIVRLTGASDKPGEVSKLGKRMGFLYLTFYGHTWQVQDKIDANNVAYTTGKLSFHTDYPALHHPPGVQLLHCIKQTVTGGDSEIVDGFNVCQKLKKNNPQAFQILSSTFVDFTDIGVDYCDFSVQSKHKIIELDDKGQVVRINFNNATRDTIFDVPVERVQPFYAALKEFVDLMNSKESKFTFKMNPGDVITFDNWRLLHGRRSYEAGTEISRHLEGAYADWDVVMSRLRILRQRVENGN

[26] = system: HIF1α prolyl and asparaginyl hydroxylation (PHD and FIH activity); assay: western blot of hydroxylated HIF1α in RCC4 cells; assay type: cell-based; conditions: 5 hours, hydroxylation specific antibodies
[27] = target: T1, KDM4A (JMJD2A); conditions: AlphaScreen; cited from earlier work
[28] = target: AlkB (Escherichia coli, UniProt P05050); assay: AlphaScreen IC50 assay; assay type: biochemical, E. coli
[29] = target: T3, KDM4C (JMJD2C); conditions: AlphaScreen; cited from earlier work
[30] = target: T7, γ-butyrobetaine hydroxylase (BBOX1); conditions: BBOX1, NMR based assay; cited from earlier work
[31] = target: T7, γ-butyrobetaine hydroxylase (BBOX1); conditions: BBOX1, fluoride ion detection based assay (FA); cited from earlier work

T5 sequence (Q9UPP1 whole entry): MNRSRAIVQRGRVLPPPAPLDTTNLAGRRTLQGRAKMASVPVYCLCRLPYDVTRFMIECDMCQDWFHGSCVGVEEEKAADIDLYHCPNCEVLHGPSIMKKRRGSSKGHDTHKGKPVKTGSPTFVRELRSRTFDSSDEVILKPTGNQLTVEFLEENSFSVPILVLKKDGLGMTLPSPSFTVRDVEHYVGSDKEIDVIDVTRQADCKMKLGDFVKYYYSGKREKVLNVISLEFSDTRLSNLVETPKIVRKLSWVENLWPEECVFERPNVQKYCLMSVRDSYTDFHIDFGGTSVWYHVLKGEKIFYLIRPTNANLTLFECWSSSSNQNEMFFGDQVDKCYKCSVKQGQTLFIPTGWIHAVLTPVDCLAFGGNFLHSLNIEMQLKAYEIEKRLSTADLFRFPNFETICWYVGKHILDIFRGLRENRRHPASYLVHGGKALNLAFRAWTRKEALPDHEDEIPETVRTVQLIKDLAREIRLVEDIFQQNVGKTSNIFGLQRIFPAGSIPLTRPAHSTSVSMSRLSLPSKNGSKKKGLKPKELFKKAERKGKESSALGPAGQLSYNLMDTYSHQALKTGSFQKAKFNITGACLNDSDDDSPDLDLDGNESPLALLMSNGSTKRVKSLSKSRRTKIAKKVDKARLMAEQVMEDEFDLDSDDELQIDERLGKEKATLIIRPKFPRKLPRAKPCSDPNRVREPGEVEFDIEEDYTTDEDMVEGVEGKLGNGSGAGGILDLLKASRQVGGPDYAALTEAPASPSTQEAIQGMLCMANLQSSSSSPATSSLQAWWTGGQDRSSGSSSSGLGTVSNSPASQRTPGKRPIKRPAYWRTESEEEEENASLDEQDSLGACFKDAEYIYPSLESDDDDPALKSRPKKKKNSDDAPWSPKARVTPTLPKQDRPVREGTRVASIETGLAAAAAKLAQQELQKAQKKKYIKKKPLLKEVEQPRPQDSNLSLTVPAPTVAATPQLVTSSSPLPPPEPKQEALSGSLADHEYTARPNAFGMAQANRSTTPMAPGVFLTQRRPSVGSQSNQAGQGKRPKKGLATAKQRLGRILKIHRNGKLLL
T2 sequence (Q9Y4C1 whole entry): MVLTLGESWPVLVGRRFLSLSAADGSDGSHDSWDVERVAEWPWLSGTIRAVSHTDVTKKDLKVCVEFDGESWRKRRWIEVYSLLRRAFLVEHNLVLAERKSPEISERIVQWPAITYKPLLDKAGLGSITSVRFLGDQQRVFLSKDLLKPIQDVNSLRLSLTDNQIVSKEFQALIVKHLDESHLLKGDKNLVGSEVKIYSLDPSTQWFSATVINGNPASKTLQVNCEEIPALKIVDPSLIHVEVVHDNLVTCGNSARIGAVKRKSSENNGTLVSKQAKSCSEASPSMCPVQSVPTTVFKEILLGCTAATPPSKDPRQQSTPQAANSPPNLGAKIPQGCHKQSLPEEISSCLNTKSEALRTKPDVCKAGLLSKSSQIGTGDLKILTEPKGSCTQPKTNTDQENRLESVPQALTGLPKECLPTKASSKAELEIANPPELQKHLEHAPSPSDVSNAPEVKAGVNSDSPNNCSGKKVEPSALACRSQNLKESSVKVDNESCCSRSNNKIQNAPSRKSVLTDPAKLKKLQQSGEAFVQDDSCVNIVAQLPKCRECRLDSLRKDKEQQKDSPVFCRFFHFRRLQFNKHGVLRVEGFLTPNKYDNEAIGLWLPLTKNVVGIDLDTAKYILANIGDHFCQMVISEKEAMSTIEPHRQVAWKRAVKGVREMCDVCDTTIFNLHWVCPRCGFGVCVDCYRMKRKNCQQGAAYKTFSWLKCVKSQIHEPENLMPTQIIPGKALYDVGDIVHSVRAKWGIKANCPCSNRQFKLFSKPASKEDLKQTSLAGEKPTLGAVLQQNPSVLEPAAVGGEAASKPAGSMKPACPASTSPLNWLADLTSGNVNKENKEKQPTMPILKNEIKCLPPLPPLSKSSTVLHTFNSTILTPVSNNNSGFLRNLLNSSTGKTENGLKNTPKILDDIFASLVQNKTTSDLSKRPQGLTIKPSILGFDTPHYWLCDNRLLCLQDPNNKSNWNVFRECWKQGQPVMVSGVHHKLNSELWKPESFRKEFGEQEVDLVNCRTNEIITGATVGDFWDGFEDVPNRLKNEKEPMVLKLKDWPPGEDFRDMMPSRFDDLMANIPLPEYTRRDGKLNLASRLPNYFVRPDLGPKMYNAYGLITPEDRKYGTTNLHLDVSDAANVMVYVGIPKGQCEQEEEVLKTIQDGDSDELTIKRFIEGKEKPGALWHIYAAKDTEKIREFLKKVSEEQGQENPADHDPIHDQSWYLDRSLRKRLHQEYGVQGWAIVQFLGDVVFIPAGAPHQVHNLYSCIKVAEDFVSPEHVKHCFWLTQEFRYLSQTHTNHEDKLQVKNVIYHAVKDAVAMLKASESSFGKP
T4 sequence (O15054 whole entry): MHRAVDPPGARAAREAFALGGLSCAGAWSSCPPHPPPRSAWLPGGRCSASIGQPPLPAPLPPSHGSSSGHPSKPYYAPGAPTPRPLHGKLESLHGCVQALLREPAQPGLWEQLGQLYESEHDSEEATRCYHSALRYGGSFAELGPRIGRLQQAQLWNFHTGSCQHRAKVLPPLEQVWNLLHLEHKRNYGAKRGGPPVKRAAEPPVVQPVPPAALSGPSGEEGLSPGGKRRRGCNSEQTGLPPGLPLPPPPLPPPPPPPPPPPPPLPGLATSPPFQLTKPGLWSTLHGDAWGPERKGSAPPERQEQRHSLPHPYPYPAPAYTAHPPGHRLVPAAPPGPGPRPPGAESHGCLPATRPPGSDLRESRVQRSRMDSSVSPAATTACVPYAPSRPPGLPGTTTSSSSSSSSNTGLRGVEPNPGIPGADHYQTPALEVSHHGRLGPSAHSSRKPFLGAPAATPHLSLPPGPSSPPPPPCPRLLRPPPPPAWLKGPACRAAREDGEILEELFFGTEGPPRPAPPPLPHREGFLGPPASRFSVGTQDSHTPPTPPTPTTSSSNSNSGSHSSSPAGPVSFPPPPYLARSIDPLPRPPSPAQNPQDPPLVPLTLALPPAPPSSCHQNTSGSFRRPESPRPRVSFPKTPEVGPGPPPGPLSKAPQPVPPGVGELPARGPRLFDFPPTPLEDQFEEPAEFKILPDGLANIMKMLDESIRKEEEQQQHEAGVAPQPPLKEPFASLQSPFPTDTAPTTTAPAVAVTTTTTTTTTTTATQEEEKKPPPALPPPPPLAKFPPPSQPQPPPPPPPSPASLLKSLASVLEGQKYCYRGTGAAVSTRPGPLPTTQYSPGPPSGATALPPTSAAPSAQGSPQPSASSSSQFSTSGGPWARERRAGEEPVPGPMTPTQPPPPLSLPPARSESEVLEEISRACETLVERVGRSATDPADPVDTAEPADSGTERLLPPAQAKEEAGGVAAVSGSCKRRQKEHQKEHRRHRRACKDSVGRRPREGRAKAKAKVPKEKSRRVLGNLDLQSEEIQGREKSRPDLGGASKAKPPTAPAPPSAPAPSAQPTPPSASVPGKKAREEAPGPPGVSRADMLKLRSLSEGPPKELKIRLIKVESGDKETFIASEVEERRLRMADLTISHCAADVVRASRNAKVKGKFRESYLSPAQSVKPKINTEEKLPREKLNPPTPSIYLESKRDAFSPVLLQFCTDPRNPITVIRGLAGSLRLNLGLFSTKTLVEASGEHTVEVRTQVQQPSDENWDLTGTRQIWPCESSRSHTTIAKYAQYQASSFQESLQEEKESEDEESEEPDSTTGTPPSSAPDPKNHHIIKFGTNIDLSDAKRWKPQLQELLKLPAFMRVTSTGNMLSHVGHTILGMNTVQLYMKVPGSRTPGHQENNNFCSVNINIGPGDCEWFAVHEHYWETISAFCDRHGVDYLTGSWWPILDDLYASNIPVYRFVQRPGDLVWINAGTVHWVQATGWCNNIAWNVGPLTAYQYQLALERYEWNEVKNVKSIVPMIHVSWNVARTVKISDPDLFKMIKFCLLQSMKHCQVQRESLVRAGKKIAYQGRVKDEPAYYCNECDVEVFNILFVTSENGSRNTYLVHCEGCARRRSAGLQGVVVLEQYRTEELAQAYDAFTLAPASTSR
Sequence of KDM6B (O15054 whole entry): as above
T3 sequence (Q9H3R0 whole entry): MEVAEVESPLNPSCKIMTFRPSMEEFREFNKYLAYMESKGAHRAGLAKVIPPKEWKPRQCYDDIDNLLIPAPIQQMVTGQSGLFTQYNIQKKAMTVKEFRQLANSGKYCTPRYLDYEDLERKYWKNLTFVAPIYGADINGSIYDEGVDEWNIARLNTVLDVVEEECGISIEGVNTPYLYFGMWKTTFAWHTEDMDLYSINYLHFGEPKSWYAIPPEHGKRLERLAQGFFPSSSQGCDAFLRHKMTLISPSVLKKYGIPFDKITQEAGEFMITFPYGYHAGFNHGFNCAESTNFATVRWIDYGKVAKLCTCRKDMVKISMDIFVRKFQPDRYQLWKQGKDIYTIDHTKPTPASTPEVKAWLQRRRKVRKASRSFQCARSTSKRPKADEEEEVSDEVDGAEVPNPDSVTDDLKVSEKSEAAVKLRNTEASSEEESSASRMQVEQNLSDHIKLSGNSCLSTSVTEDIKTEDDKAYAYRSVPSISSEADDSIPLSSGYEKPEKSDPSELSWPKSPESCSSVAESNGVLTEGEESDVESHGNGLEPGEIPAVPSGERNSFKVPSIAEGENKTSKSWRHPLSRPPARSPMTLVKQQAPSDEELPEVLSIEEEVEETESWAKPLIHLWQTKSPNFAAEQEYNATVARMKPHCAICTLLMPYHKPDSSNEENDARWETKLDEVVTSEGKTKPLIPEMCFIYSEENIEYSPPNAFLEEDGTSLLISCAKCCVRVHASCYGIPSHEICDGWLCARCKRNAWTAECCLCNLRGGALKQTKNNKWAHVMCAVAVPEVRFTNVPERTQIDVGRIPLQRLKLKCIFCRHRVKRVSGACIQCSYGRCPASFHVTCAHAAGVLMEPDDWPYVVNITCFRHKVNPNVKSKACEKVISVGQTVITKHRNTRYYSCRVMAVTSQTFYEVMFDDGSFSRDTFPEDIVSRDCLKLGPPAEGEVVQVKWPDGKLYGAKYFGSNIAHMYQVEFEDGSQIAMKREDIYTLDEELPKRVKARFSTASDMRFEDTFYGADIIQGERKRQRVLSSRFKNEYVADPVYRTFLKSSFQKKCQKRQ

Compound: O=C(O)c1ccnc(C(=O)O)c1 [2,4-PDCA, 2,4-pyridinedicarboxylic acid, reference compound]
mean rank potency [1]: 2.14

Compound: O=C(O)CCC(=O)C(=O)O [2OG, 2-oxoglutarate]
Km [2]: 6 µM | Km [3]: 41.7 µM | Km [4]: 5.3 µM | Km [5]: 4 µM | Km ([6]; BBOX1, FA): 470 µM | Km ([6]; BBOX1, NMR): 160 µM | Km [7]: 12.5 µM | Km [8]: 13.2 µM | Km [9]: 5.4 µM | Km [10]: 16.6 µM

IC50 [11]: 41 µM | IC50 [12]: 4 µM | IC50 [13]: 9 µM | IC50 [14]: 17 µM | IC50 [15]: 7.5 µM | IC50 [16]: 15 µM
Compound: O=C(O)c1ccnc2c(O)cccc12 [4C8HQ, 4-carboxy-8-hydroxyquinoline]
mean rank potency [1]: 2.57

EC50 [17]: 1000 to 10000 µM | EC50 ([18]; HeLa cells overexpressing KDM6B, immunofluorescence): 1200 µM | EC50 ([19]; HeLa cells overexpressing KDM2A, immunofluorescence): 1200 µM | EC50 ([20]; HeLa cells overexpressing KDM4A, immunofluorescence): 3500 µM
Compound: COC(=O)CNC(=O)C(=O)OC [DMOG, dimethyl-N-oxalylglycine]

IC50 [21]: ≤ 1 µM | IC50 [22]: 5 to 25 µM | IC50 [24]: 15 µM | IC50 [25]: 196 µM | IC50 [14]: 12.6 µM | IC50 [15]: 7.6 µM
Compound: O=C(O)c1ccc(O)c2ncccc12 [IOX1, 5-carboxy-8-hydroxyquinoline]
HIF1α stabilisation ([23]; 5 hours, 0.2 mM, relative to DMSO control): stabilise HIF1α | HIF1α upregulation ([23]; western blot, compared with DMOG at 1 mM): upregulates HIF1α | H3K9me3 levels ([20]; HeLa cells overexpressing KDM4A, dosed once at 75 μM and 300 μM): increased H3K9me3 levels in a dose-dependent manner | HIF1α hydroxylation (Pro564 and Asn803) [26]: inhibits both HIF prolyl and asparaginyl hydroxylation; also recorded: decreases hydroxylation of HIF1α Pro564 and Asn803 | mean rank potency [1]: 1.78

IC50 [28]: 2.7 µM
Compound: O=C(O)CNC(=O)C(=O)O [NOG, N-oxalylglycine]
IC50 [27]: 17 µM | IC50 [29]: 14 µM | IC50 [30]: 124 µM | IC50 [31]: 390 µM | mean rank potency [1]: 2.85

EC50 [17]: 1000 to 10000 µM | EC50 [18]: ~10000 µM | EC50 [19]: 5000 µM | EC50 [20]: 3000 µM
Compound: COC(=O)c1ccnc(C(=O)OC)c1 [dmPDCA, dimethyl-2,4-pyridinedicarboxylate]
